The subject of the assay is T1, Kir3.1 and Kir3.4 (IKACh).
T1 construct: gene KCNJ3; heterotetramer
Briefly: whole-cell patch clamp, HEK293, block of Ba-sensitive current. It counts as cell-based. To be noted: -140 mV step from -20 mV holding; about 24 °C; bath pH 7.4, 50 mM KCl; pipette 0.1 mM GTP; Hill slope -0.48. Background: Patch clamp records ionic current or voltage across a cell membrane.

pIC50: −log10 of the molar value.

In general, pIC50 refers to the negative decadic logarithm of the IC50, by convention in mol/L. Consider `CCN(CC)CCCC(C)Nc1ccnc2cc(Cl)ccc12` (stereo not shown) [chloroquine], for which the negative-log IC50 (pIC50) was 5.92.

The record behind these values is article PMC6890839, “The Antimalarial Chloroquine Reduces the Burden of Persistent Atrial Fibrillation” (Frontiers in Pharmacology, 2019).
